# Results published in US10675268B2, “Somatostatin receptor subtype 4 (SSTR4) agonists” (Centrexion Therapeutics Corporation, priority 2013, dated 2020).
# Assay: Metabolic stability in pooled human liver microsomes (half-life)
# Assay type: in vitro ADME
# Conditions: 37° C., 1 μM test compound
# Protocol: The metabolic stability of the compounds according to the invention may be investigated as follows:
# The metabolic degradation of the test compound is assayed at 37° C. with pooled human liver microsomes. The final incubation volume of 100 μl per time point contains TRIS buffer pH 7.6 at room temperature (0.1 M), magnesium chloride (5 mM), microsomal protein (1 mg/mL) and the test compound at a final concentration of 1 μM. Following a short preincubation period at 37° C., the reactions are initiated by addition of beta-nicotinamide adenine dinucleotide phosphate, reduced form (NADPH, 1 mM), and terminated by transferring an aliquot into solvent after different time points. After centrifugation (10000 g, 5 min), an aliquot of the supernatant is assayed by LC-MS/MS for the amount of parent compound. The half-life is determined by the slope of the semi-logarithmic plot of the concentration-time profile.
row,Compound,Half-life t1/2
1,CCc1ccccc1OCC(C)(C)NC(=O)[C@H]1[C@@H]2CNC[C@@H]21.Cl [Example 39],>2.17 h
2,Cc1cc(C2CC2)ccc1OCC(C)(C)NC(=O)[C@H]1[C@@H]2CNC[C@@H]21 [Example 65],>2.17 h
3,Cc1cccc2c(C(C)(C)NC(=O)[C@H]3[C@@H]4CNC[C@@H]43)n[nH]c12 [Example 93],>2.17 h
4,CC(C)(NC(=O)[C@H]1[C@@H]2CNC[C@@H]21)c1n[nH]c2ccccc12 [Example 94],>2.17 h
5,CC(C)(NC(=O)[C@H]1[C@@H]2CNC[C@@H]21)c1n[nH]c2c(C(F)(F)F)cccc12 [Example 110],>2.17 h
